Measured values as given in publication PMC10845205, “Discovery of novel antibacterial agent for the infected wound treatment: all-hydrocarbon stapling optimization of LL-37” (Theranostics, 2024).
≈ marks a conversion by molar mass, not a printed value. Like-named read-outs stand apart in the source and are kept apart here. Positions of bridges follow the written chain, without caps; N, C: chain ends. Non-standard residues stand in square brackets, D forms with d. Residues, ends and D or L forms follow the SMILES beside them. R8 = C=CCCCCCC[C@@](C)(N)C(=O)O; S5 = C=CCCC[C@](C)(N)C(=O)O

Key:
[1] = tested on: E. faecalis
Experimental: (§1) According to the protocol of Clinical & Laboratory Standards Institute, the minimum inhibitory concentration (MIC) of the linear and stapled peptides against a panel of gram-positive and gram-negative bacteria was determined by the broth microdilution method. […]
(§2) Bacterial strains and culture
(§3) Bacterial type stains ATCC 25923 S. aureus, ATCC 12228 S. epidermidis, ATCC […]
(§4) aeruginosa and ATCC 13883 K. pneumoniae were obtained from Shanghai Bioresource Collection Center. The bacterial culture medium was purchased from Oxoid and autoclaved according to the instructions from manufacturer. The isolated strains were cultured in Mueller Hinton II broth and continuously shaken at 140 rpm for 18 hours to the middle of the exponential growth phase at 37 °C with an OD value of 0.4-0.5.
(§5) Bacterial suspensions with an OD value of 0.1, approximately […], were then diluted for further assays.
(§6) The minimal inhibition concentration (MIC) of the linear and stapled peptides was determined using the microbroth dilution method from the Clinical and Laboratory Standards Institute (CLSI)[2, 3]. Bacterial suspensions of 10 6 CFU/mL were prepared in MH-II broth and peptide solutions at varying concentrations were prepared in phosphate buffer saline (PBS). Then 50 μL peptide solution and 50 μL bacterial suspension were mixed in a 96 -well plate. Plates were incubated for 24 hours at 37 °C.
(§7) 10 μL AlamarBlue cell viability reagent (ThermoFisher Scientific, UK) was added to each well, then the plate was re -incubated for a further 2 hours at 37 °C. The MIC was recorded as the minimum concentration of peptides required to completely in hibit bacteria growth. For serum stability assessment, the peptide solutions were pre - incubated with 50% human serum for 4 h before the MIC determination. Experiments were performed in 3 independent measurements. […]

[2] = tested on: S. epidermidis
Experimental: as §1, §2, §3, §4, §5, §6, §7

[3] = tested on: E. coli
Experimental: as §1, §2, §3, §4, §5, §6, §7

[4] = tested on: K. pneumoniae
Experimental: as §1, §2, §3, §4, §5, §6, §7

[5] = tested on: S. aureus
Experimental: as §1, §2, §3, §4, §5, §6, §7

[6] = tested on: A. baumannii
Experimental: as §1, §2, §3, §4, §5, §6, §7

[7] = tested on: P. aeruginosa
Experimental: as §1, §2, §3, §4, §5, §6, §7

[8] = Serum stability assay; assay type: in vitro ADME, human; settings: for metabolised at 1 h, 0.4 mg/mL: human serum in pH 7.4 PBS, 37 °C, RP-HPLC, read-out: fraction hydrolyzed within 1 h; for TD50 (time at which 50% of the peptide is degraded in the presence of serum): human serum, 2 mg/mL peptide in pH 7.4 PBS mixed with serum 1:4, 37 °C, up to 48 h, RP-HPLC UV 220 nm, 3 independent measurements
Description: Maintaining high stability and presenting high compatibility in the complex physiological environment are important criterions for the clinical translation of AMPs. […] The derivatives were mixed with human serum in pH 7.4 PBS, simulating the degradation process of peptides by proteases in vivo. The percentages of intact derivatives were monitored and determined with time according to the PR-HPLC. […]
Serum stability of the linear and stapled peptides was examined by RP -HPLC as previously described. 2 mg/mL peptide solution was prepared in pH 7.4 PBS and incubated with human serum (Gemini, USA) to the final volume ratio of 1:4 at 37 °C.
At various time intervals, 50 μL mixture was added to 50 μL ethanol to terminate the enzymatic hydrolysis. After centrifugation at 10,000 rpm for 10 minutes under 4 °C, […]
the supernatant was collected and analyzed by RP-HPLC, with a UV detector monitored at 220 nm. Record the peak area of the intact peptide and calculate the percentage of remaining peptide based on the integrated area as, Peptide remaining (%) = peak area of remaining peptide/peak area of intact peptide×100%. […]

[9] = tested on: NIH-3T3 cell; settings: 24 h
Experimental: For development of the stapled KR-12 derivatives to treat bacterial infections in vivo, their cytotoxicity was examined via the CCK-8 assay, which could provide a quantitative assessment of cell viability based on the dehydrogenase activity. The mouse embryonic fibroblast NIH-3T3 cell was selected and incubated with various concentrations of KR-12 and its stapled derivatives.
Mouse embryonic fibroblast cells NIH-3T3 and mouse monocyte macrophage leukemia cells RAW264.7 were obtained from Shanghai Institute of Biochemistry and Cell Biology, Chinese Academy of Sciences. These two cells were maintained in DMEM and RPMI-1640, respectively. Both media were supplemented with 10% FBS and 1% 100 U/mL penicillin-streptomycin solution. Cells were maintained at 37 °C in a 5% CO2 and humidified incubator. Replace the culture medium every day until the cell grows to confluence. Cells were then treated with 0.25% trypsin–EDTA and split using fresh medium for either passage or analysis.
CCK-8 cell counting kit was utilized to examine the cytotoxicity of the linear and stapled peptides. NIH-3T3 cell was planked at a density of 1.5×10^4 cell/well in a 96 - well plate and incubated it for 24 hours at 37 °C. Cells were then treated with different concentrations of peptides in fresh DMEM and incubated for 24 hours before the addition of 10 μL CCK -8 and incubation for a further 1 hour. Measure the absorbance at 450nm using a microplate reader (BioTek, USA) and calculate the percentage of cell viability as: cell viability (%) = (Abspeptide-Absblank)/(Abscontrol-Absblank)×100%, where Abscontrol is the absorbance of cells treated with PBS and Abs blank is the absorbance of the cell-free medium. The data was fitted using the nonlinear regression within

Ac-KRIVQRIKDFLR-NH2 [KR-12, reference compound]
MIC E. faecalis ([1]; 24 h): 128 µg/mL
MIC S. epidermidis ([2]; 24 h): > 256 µg/mL
MIC E. coli ([3]; 24 h): 128 µg/mL
MIC K. pneumoniae ([4]; 24 h): > 256 µg/mL
MIC S. aureus ([5]; 24 h): 32 µg/mL
MIC A. baumannii ([6]; 24 h): > 256 µg/mL
MIC P. aeruginosa ([7]; 24 h): 256 µg/mL
metabolised at 1 h, 0.4 mg/mL [8]: > 50%
TD50 (time at which 50% of the peptide is degraded in the presence of serum) [8]: 0.78 h

CC(=O)N[C@@H](CCCCN)C(=O)N[C@@H](CCCNC(=N)N)C(=O)N[C@@]1(C)CCCC=CCCC[C@@](C)(C(=O)N[C@@H](CCCCN)C(=O)N[C@@H](CC(=O)O)C(=O)N[C@@H](Cc2ccccc2)C(=O)N[C@@H](CC(C)C)C(=O)N[C@@H](CCCNC(=N)N)C(N)=O)NC(=O)[C@H](CCCNC(=N)N)NC(=O)[C@H](CCC(N)=O)NC(=O)[C@H](C(C)C)NC1=O [KR-12 (I3, I7)] (Ac-KR[S5]VQR[S5]KDFLR-NH2; staple 3-7)
MIC E. faecalis ([1]; 24 h): 16 µg/mL (≈ 9.77 µM)
MIC S. epidermidis ([2]; 24 h): 64 µg/mL (≈ 39.1 µM)
MIC E. coli ([3]; 24 h): 16 µg/mL (≈ 9.77 µM)
MIC K. pneumoniae ([4]; 24 h): 128 µg/mL (≈ 78.2 µM)
MIC S. aureus ([5]; 24 h): 8 µg/mL (≈ 4.89 µM)
MIC A. baumannii ([6]; 24 h): 32 µg/mL (≈ 19.5 µM)
MIC P. aeruginosa ([7]; 24 h): 256 µg/mL (≈ 156 µM)
IC50 against NIH-3T3 cell [9]: 145.7 µg/mL (≈ 89 µM)
TD50 (time at which 50% of the peptide is degraded in the presence of serum) [8]: 4.21 h

CC[C@H](C)[C@H](NC(=O)[C@H](CCCCN)NC(=O)[C@H](CCC(=O)O)NC(=O)[C@H](CCCCN)NC(=O)[C@H](CO)NC(=O)[C@H](CCCCN)NC(=O)[C@H](CCCNC(=N)N)NC(=O)[C@H](Cc1ccccc1)NC(=O)[C@H](Cc1ccccc1)NC(=O)[C@H](CC(=O)O)NC(=O)CNC(=O)[C@H](CC(C)C)NC(=O)[C@@H](N)CC(C)C)C(=O)NCC(=O)N[C@@H](CCCCN)C(=O)N[C@@H](CCC(=O)O)C(=O)N[C@@H](Cc1ccccc1)C(=O)N[C@@H](CCCCN)C(=O)N[C@@H](CCCNC(=N)N)C(=O)N[C@H](C(=O)N[C@H](C(=O)N[C@@H](CCC(N)=O)C(=O)N[C@@H](CCCNC(=N)N)C(=O)N[C@H](C(=O)N[C@@H](CCCCN)C(=O)N[C@@H](CC(=O)O)C(=O)N[C@@H](Cc1ccccc1)C(=O)N[C@@H](CC(C)C)C(=O)N[C@@H](CCCNC(=N)N)C(=O)N[C@@H](CC(N)=O)C(=O)N[C@@H](CC(C)C)C(=O)N[C@H](C(=O)N1CCC[C@H]1C(=O)N[C@@H](CCCNC(=N)N)C(=O)N[C@H](C(=O)N[C@@H](CCC(=O)O)C(=O)N[C@@H](CO)C(=O)O)[C@@H](C)O)C(C)C)[C@@H](C)CC)C(C)C)[C@@H](C)CC [LL-37]
metabolised at 1 h, 0.4 mg/mL [8]: > 50%
TD50 (time at which 50% of the peptide is degraded in the presence of serum) [8]: 0.58 h

CC[C@H](C)[C@@H]1NC(=O)[C@H](CCCNC(=N)N)NC(=O)[C@@](C)(NC(=O)[C@@H](NC(=O)[C@@H](NC(=O)[C@H](CCCNC(=N)N)NC(=O)[C@H](CCCCN)NC(C)=O)[C@@H](C)CC)C(C)C)CCCC=CCCC[C@@](C)(C(=O)N[C@@H](Cc2ccccc2)C(=O)N[C@@H](CC(C)C)C(=O)N[C@@H](CCCNC(=N)N)C(N)=O)NC(=O)[C@H](CCCCN)NC1=O [KR-12 (Q5, D9)] (Ac-KRIV[S5]RIK[S5]FLR-NH2; staple 5-9)
MIC E. faecalis ([1]; 24 h): 8 µg/mL (≈ 4.94 µM)
MIC S. epidermidis ([2]; 24 h): 16 µg/mL (≈ 9.88 µM)
MIC E. coli ([3]; 24 h): 8 µg/mL (≈ 4.94 µM)
MIC K. pneumoniae ([4]; 24 h): 128 µg/mL (≈ 79 µM)
MIC S. aureus ([5]; 24 h): 8 µg/mL (≈ 4.94 µM)
MIC A. baumannii ([6]; 24 h): 16 µg/mL (≈ 9.88 µM)
MIC P. aeruginosa ([7]; 24 h): 64 µg/mL (≈ 39.5 µM)
IC50 against NIH-3T3 cell [9]: 168.5 µg/mL (≈ 104 µM)
TD50 (time at which 50% of the peptide is degraded in the presence of serum) [8]: 8.91 h

CC[C@H](C)[C@H](NC(=O)[C@]1(C)CCCC=CCCC[C@](C)(NC(=O)[C@H](CCCCN)NC(C)=O)C(=O)N[C@@H]([C@@H](C)CC)C(=O)N[C@@H](C(C)C)C(=O)N[C@@H](CCC(N)=O)C(=O)N1)C(=O)N[C@@H](CCCCN)C(=O)N[C@@H](CC(=O)O)C(=O)N[C@@H](Cc1ccccc1)C(=O)N[C@@H](CC(C)C)C(=O)N[C@@H](CCCNC(=N)N)C(N)=O [KR-12 (R2, R6)] (Ac-K[S5]IVQ[S5]IKDFLR-NH2; staple 2-6)
MIC E. faecalis ([1]; 24 h): 128 µg/mL (≈ 82.5 µM)
MIC S. epidermidis ([2]; 24 h): 128 µg/mL (≈ 82.5 µM)
MIC E. coli ([3]; 24 h): >256 µg/mL
MIC K. pneumoniae ([4]; 24 h): > 256 µg/mL
MIC S. aureus ([5]; 24 h): 128 µg/mL (≈ 82.5 µM)
MIC A. baumannii ([6]; 24 h): > 256 µg/mL
MIC P. aeruginosa ([7]; 24 h): > 256 µg/mL
IC50 against NIH-3T3 cell [9]: 78.3 µg/mL (≈ 50.5 µM)
TD50 (time at which 50% of the peptide is degraded in the presence of serum) [8]: 2.38 h

polymyxin b [PMB, reference compound]
MIC E. faecalis ([1]; CLSI broth microdilution, MH-II broth, 24 h 37 °C, AlamarBlue, ATCC 29212, 3 independent measurements): 256 µg/mL
MIC S. epidermidis ([2]; CLSI broth microdilution, MH-II broth, 24 h 37 °C, AlamarBlue, ATCC 12228, 3 independent measurements): 128 µg/mL
MIC E. coli ([3]; CLSI broth microdilution, MH-II broth, 24 h 37 °C, AlamarBlue, ATCC 25922, 3 independent measurements): 4 µg/mL
MIC K. pneumoniae ([4]; CLSI broth microdilution, MH-II broth, 24 h 37 °C, AlamarBlue, ATCC 13883, 3 independent measurements): 16 µg/mL
MIC S. aureus ([5]; CLSI broth microdilution, MH-II broth, 10^6 CFU/mL, 24 h 37 °C, AlamarBlue, ATCC 25923, 3 independent measurements): 64 µg/mL
MIC A. baumannii ([6]; CLSI broth microdilution, MH-II broth, 24 h 37 °C, AlamarBlue, ATCC 19606, 3 independent measurements): 4 µg/mL
MIC P. aeruginosa ([7]; CLSI broth microdilution, MH-II broth, 24 h 37 °C, AlamarBlue, ATCC 27853, 3 independent measurements): 8 µg/mL

CC[C@H](C)[C@@H]1NC(=O)[C@H](CCCNC(=N)N)NC(=O)[C@H](CCC(N)=O)NC(=O)[C@H](C(C)C)NC(=O)[C@](C)(NC(=O)[C@H](CCCNC(=N)N)NC(=O)[C@H](CCCCN)NC(C)=O)CCCCCCC=CCCC[C@@](C)(C(=O)N[C@@H](CC(C)C)C(=O)N[C@@H](CCCNC(=N)N)C(N)=O)NC(=O)[C@H](CC(=O)O)NC(=O)[C@H](CCCCN)NC1=O [KR-12 (I3, F10)] (Ac-KR[R8]VQRIKD[S5]LR-NH2; staple 3-10)
MIC E. faecalis ([1]; 24 h): 256 µg/mL (≈ 156 µM)
MIC S. epidermidis ([2]; 24 h): 256 µg/mL (≈ 156 µM)
MIC E. coli ([3]; 24 h): 64 µg/mL (≈ 38.9 µM)
MIC K. pneumoniae ([4]; 24 h): 64 µg/mL (≈ 38.9 µM)
MIC S. aureus ([5]; 24 h): 64 µg/mL (≈ 38.9 µM)
MIC A. baumannii ([6]; 24 h): 32 µg/mL (≈ 19.5 µM)
MIC P. aeruginosa ([7]; 24 h): 128 µg/mL (≈ 77.8 µM)
